Measured values reported in paper PMC8509773, “3-Pyridinylidene Derivatives of Chemically Modified Lupane and Ursane Triterpenes as Promising Anticancer Agents by Targeting Apoptosis” (International Journal of Molecular Sciences, 2021).

Key:
Assay in all cases: NCI-60 SRB screening (one-dose and five-dose)
Assay type in all cases: cell-based, human
[1] = test system: HCT-15; conditions: 48 h; for Growth Percent: HCT-15, 10 μM
Method: (§1) The compounds were added at a single concentration and the cell cultures were incubated for 48 h. The end point determinations were made with a protein binding dye, sulforhodamine B (SRB). […] The percentage of growth was evaluated spectrophotometrically versus controls not treated with test agents after 48-h exposure and using SRB protein assay to estimate cell viability or growth. […] Furthermore, mean graph midpoints (MG_MID) were calculated for each of the parameters, giving an average activity parameter over all cell lines for the tested compound. For the MG_MID calculation, insensitive cell lines were included with the highest concentration tested.

[2] = test system: HOP-92; conditions: 48 h; for Growth Percent: HOP-92, 10 μM
Method: as §1

[3] = test system: NCI-H226; conditions: 48 h; for Growth Percent: NCI-H226, 10 μM
Method: as §1

[4] = test system: HL-60(TB); conditions: 48 h; for Growth Percent: 10 μM
Method: as §1

[5] = test system: MDA-MB-231/ATCC; conditions: 48 h; for Growth Percent: 10 μM
Method: as §1

[6] = test system: T-47D; conditions: 48 h; for Growth Percent: T-47D, 10 μM
Method: as §1

[7] = test system: NCI-H522; conditions: 48 h; for Growth Percent: NCI-H522, 10 μM
Method: as §1

[8] = test system: RPMI-8226; conditions: 48 h; for Growth Percent: RPMI-8226, 10 μM
Method: as §1

[9] = test system: LOX IMVI; conditions: 48 h; for Growth Percent: 10 μM
Method: as §1

[10] = test system: MCF7; conditions: 48 h; for Growth Percent: MCF7, 10 μM
Method: as §1

[11] = test system: NCI-H460; conditions: 48 h; for Growth Percent: NCI-H460, 10 μM
Method: as §1

[12] = test system: 786-0; conditions: 48 h; for Growth Percent: 786-0, 10 μM
Method: as §1

[13] = test system: A498; conditions: 48 h; for Growth Percent: A498, 10 μM
Method: as §1

[14] = test system: SF-268; conditions: 48 h; for Growth Percent: SF-268, 10 μM
Method: as §1

[15] = test system: IGROV1; conditions: 48 h; for Growth Percent: IGROV1, 10 μM
Method: as §1

[16] = test system: SK-MEL-2; conditions: 48 h; for Growth Percent: SK-MEL-2, 10 μM
Method: as §1

[17] = test system: K-562; conditions: 48 h; for Growth Percent: K-562, 10 μM
Method: as §1

[18] = test system: COLO 205; conditions: 48 h; for Growth Percent: COLO 205, 10 μM
Method: as §1

[19] = test system: UACC-257; conditions: 48 h; for Growth Percent: UACC-257, 10 μM
Method: as §1

[20] = test system: NCI-H322M; conditions: 48 h; for Growth Percent: 10 μM
Method: as §1

[21] = test system: HOP-62; conditions: 48 h; for Growth Percent: HOP-62, 10 μM
Method: as §1

[22] = test system: SF-295; conditions: 48 h; for Growth Percent: SF-295, 10 μM
Method: as §1

[23] = test system: MDA-MB-468; conditions: 48 h; for Growth Percent: MDA-MB-468, 10 μM
Method: as §1

[24] = test system: HCC-2998; conditions: 48 h; for Growth Percent: HCC-2998, 10 μM
Method: as §1

[25] = test system: U251; conditions: 48 h; for Growth Percent: U251, 10 μM
Method: as §1

[26] = test system: SW-620; conditions: 48 h; for Growth Percent: SW-620, 10 μM
Method: as §1

[27] = test system: HCT-116; conditions: 48 h; for Growth Percent: HCT-116, 10 μM
Method: as §1

[28] = test system: A549/ATCC; conditions: 48 h; for Growth Percent: 10 μM
Method: as §1

[29] = test system: SK-OV-3; conditions: 48 h; for Growth Percent: SK-OV-3, 10 μM
Method: as §1

[30] = test system: UO-31; conditions: 48 h; for Growth Percent: UO-31, 10 μM
Method: as §1

[31] = test system: BT-549; conditions: 48 h; for Growth Percent: BT-549, 10 μM
Method: as §1

[32] = test system: RXF 393; conditions: 48 h; for Growth Percent: RXF 393, 10 μM
Method: as §1

[33] = test system: OVCAR-5; conditions: 48 h; for Growth Percent: OVCAR-5, 10 μM
Method: as §1

[34] = test system: NCI/ADR-RES; conditions: 48 h; for Growth Percent: 10 μM
Method: as §1

[35] = test system: MDA-MB-435; conditions: 48 h; for Growth Percent: MDA-MB-435, 10 μM
Method: as §1

[36] = test system: EKVX; conditions: 48 h; for Growth Percent: 10 μM
Method: as §1

[37] = test system: SF-539; conditions: 48 h; for Growth Percent: SF-539, 10 μM
Method: as §1

[38] = test system: SK-MEL-5; conditions: 48 h; for Growth Percent: SK-MEL-5, 10 μM
Method: as §1

[39] = test system: SNB-75; conditions: 48 h; for Growth Percent: SNB-75, 10 μM
Method: as §1

[40] = Homo sapiens, five dose 0.01–100 μM

C[C@H]1[C@@H]2[C@H]3CC[C@@H]4[C@@]5(C)C/C(=C\c6cccnc6)C(=O)C(C)(C)[C@@H]5CC[C@@]4(C)[C@]3(C)CC[C@]23CO[C@@]1(C)[C@@H](C(=O)/C=C/c1cccnc1)C3 [Compound 6, 3-Oxo-2-(3-pyridinylidene)-21-[3-(2E-pyridinyl)-prop-2-en-1-one]-20β,28-epoxy-18α,19βH-ursane]
Growth Percent [1]: −15.30%
GI50 ([1]; Homo sapiens, HCT-15, five dose 0.01–100 μM): 1110 nM
Growth Percent [2]: −19.97%
GI50 ([2]; Homo sapiens, HOP-92, five dose 0.01–100 μM): 820 nM
GI50 ([3]; Homo sapiens, NCI-H226, five dose 0.01–100 μM): 1020 nM
Growth Percent [3]: −13.51%
Growth Percent [4]: 14.49%
GI50 [4, 40]: 560 nM
Growth Percent [5]: −30.71%
GI50 [5, 40]: 1030 nM
GI50 ([6]; Homo sapiens, T47D, T -47D, five dose 0.01–100 μM): 1980 nM
Growth Percent [6]: 24.61%
GI50 ([7]; Homo sapiens, NCI-H522, five dose 0.01–100 μM): 1360 nM
Growth Percent [7]: −34.35%
GI50 ([8]; Homo sapiens, RPMI-8226, five dose 0.01–100 μM): 160 nM
Growth Percent [8]: 5.06%
Growth Percent [9]: −85.19%
GI50 [9, 40]: 890 nM
GI50 ([10]; Homo sapiens, MCF7, five dose 0.01–100 μM): 910 nM
Growth Percent [10]: 9.88%
GI50 ([11]; Homo sapiens, NCI-H460, five dose 0.01–100 μM): 890 nM
Growth Percent [11]: −45.33%
Growth Percent [12]: −38.97%
GI50 ([12]; Homo sapiens, 786-0, five dose 0.01–100 μM): 920 nM
Growth Percent [13]: −59.07%
GI50 ([13]; Homo sapiens, A498, five dose 0.01–100 μM): 780 nM
GI50 ([14]; Homo sapiens, SF-268, five dose 0.01–100 μM): 1310 nM
Growth Percent [14]: 7.10%
GI50 ([15]; Homo sapiens, IGROV-1, IGROV1, five dose 0.01–100 μM): 960 nM
Growth Percent [15]: 1.25%
GI50 ([16]; Homo sapiens, SK-MEL-2, five dose 0.01–100 μM): 1300 nM
Growth Percent [16]: −25.53%
GI50 ([17]; Homo sapiens, K562, K-562, five dose 0.01–100 μM): 30 nM
Growth Percent [17]: 6.51%
Growth Percent [18]: −56.84%
GI50 ([18]; Homo sapiens, COLO 205, five dose 0.01–100 μM): 1430 nM
GI50 ([19]; Homo sapiens, UACC-257, five dose 0.01–100 μM): 1670 nM
Growth Percent [19]: 13.16%
Growth Percent [20]: 46.39%
GI50 [20, 40]: 1820 nM
Growth Percent [21]: −13.55%
GI50 ([21]; Homo sapiens, HOP-62, five dose 0.01–100 μM): 1560 nM
GI50 ([22]; Homo sapiens, SF-295, five dose 0.01–100 μM): 1690 nM
Growth Percent [22]: 6.07%
GI50 ([23]; Homo sapiens, MDA-MB-468, five dose 0.01–100 μM): 860 nM
Growth Percent [23]: −5.83%
Growth Percent [24]: −67.18%
GI50 ([24]; Homo sapiens, HCC-2998, five dose 0.01–100 μM): 890 nM
GI50 ([25]; Homo sapiens, U-251, U251, five dose 0.01–100 μM): 1040 nM
Growth Percent [25]: −68.02%
GI50 ([26]; Homo sapiens, SW-620, five dose 0.01–100 μM): 980 nM
Growth Percent [26]: −26.39%
Growth Percent [27]: −45.63%
GI50 ([27]; Homo sapiens, HCT-116, five dose 0.01–100 μM): 230 nM
Growth Percent [28]: −24.64%
GI50 [28, 40]: 1270 nM
GI50 ([29]; Homo sapiens, SK-OV-3, five dose 0.01–100 μM): 5900 nM
Growth Percent [29]: 58.93%
GI50 ([30]; Homo sapiens, UO-31, five dose 0.01–100 μM): 640 nM
Growth Percent [30]: −97.34%
Growth Percent [31]: −20.09%
GI50 ([31]; Homo sapiens, BT-549, five dose 0.01–100 μM): 730 nM
GI50 ([32]; Homo sapiens, RXF 393, five dose 0.01–100 μM): 830 nM
Growth Percent [32]: −91.75%
GI50 ([33]; Homo sapiens, OVCAR-5, five dose 0.01–100 μM): 1460 nM
Growth Percent [33]: −4.00%
Growth Percent [34]: 2.97%
GI50 [34, 40]: 1700 nM
GI50 ([35]; Homo sapiens, MDA-MB-435, MDA-B-435, five dose 0.01–100 μM): 1090 nM
Growth Percent [35]: −7.30%
Growth Percent [36]: −1.58%
GI50 [36, 40]: 1720 nM
GI50 ([37]; Homo sapiens, SF-539, five dose 0.01–100 μM): 1020 nM
Growth Percent [37]: −32.36%
GI50 ([38]; Homo sapiens, SK-MEL-5, five dose 0.01–100 μM): 820 nM
Growth Percent [38]: −82.25%
GI50 ([39]; Homo sapiens, SNB-75, five dose 0.01–100 μM): 1020 nM
Growth Percent [39]: 32.69%

C[C@H]1[C@@H]2[C@H]3CC[C@@H]4[C@@]5(C)CC[C@H](O)C(C)(C)[C@@H]5CC[C@@]4(C)[C@]3(C)CC[C@]23CO[C@@]1(C)C(C(=O)/C=C/c1cccnc1)C3 (stereo partly drawn) [Compound 4]
Growth Percent [1]: 38.53%
Growth Percent [2]: 79.10%
Growth Percent [3]: 76.56%
Growth Percent [4]: 47.50%
Growth Percent [5]: 82.10%
Growth Percent [6]: 30.20%
Growth Percent [7]: 37.96%
Growth Percent [8]: 9.55%
Growth Percent [9]: 51.47%
Growth Percent [10]: 23.65%
Growth Percent [11]: 40.71%
Growth Percent [12]: 63.59%
Growth Percent [13]: 72.89%
Growth Percent [14]: 81.93%
Growth Percent [15]: 80.59%
Growth Percent [16]: 87.32%
Growth Percent [17]: 17.96%
Growth Percent [18]: 56.27%
Growth Percent [19]: 49.29%
Growth Percent [20]: 88.41%
Growth Percent [21]: 81.73%
Growth Percent [22]: 79.88%
Growth Percent [23]: 20.53%
Growth Percent [24]: 69.92%
Growth Percent [25]: 58.63%
Growth Percent [26]: 32.25%
Growth Percent [27]: 14.40%
Growth Percent [28]: 57.76%
Growth Percent [29]: 77.76%
Growth Percent [30]: 58.69%
Growth Percent [31]: 57.24%
Growth Percent [32]: 75.20%
Growth Percent [33]: 120.62%
Growth Percent [34]: 78.87%
Growth Percent [35]: 34.50%
Growth Percent [36]: 101.00%
Growth Percent [37]: 77.76%
Growth Percent [38]: 37.02%
Growth Percent [39]: 72.76%
